Where two headings read alike, the source gives them in different places.
Assays:
recombinant human BACE-1 = recombinant human BACE-1 (Homo sapiens (Human), UniProt P56817); experiment: Beta-secretase (BACE) inhibition assay, fluorogenic enzymatic assay; format: biochemical
Method: Beta-Secretase (BACE) Inhibition Assay
Inhibitory potency against β-secretase (BACE) was measured using an enzymatic assay with a fluorogenic readout. 50 nM of recombinant human BACE-1 (R&D Systems) and test compound at one of various concentrations were added to a reaction buffer containing 20 mM sodium acetate at pH 4.8, with 0.06% Triton X-100, and 1% DMSO. […] The total volume of the assay solution was 100 μL. […] The slopes of the progress curves were the measure of reaction rates. Reaction rates were plotted as a function of inhibitor concentration, and the data were fit with a four-parameter logistic fit using Graphpad PRISM software to yield IC50 values.

[1] = system: HIV-1 (IIIB) in MT-4 cells; experiment: microbe, parasite or virus in culture; format: cell-based
[2] = Liver microsomal stability, human liver microsomes; settings: for half-life at 1 uM: human, liver microsomes
Method: Liver Microsomal Stability Protocol
Test compounds and one control compound (verapamil) were tested in 3 different species in duplicate sets.
Test compound concentration: 1 uM; Protein concentration: 0.5 mg/mL (for dog, rat, and human liver microsomes); Cofactor: NADPH-Regenerating system (NRS) solution; Time-points: 2, 12, 25, 45, and 65 minutes.
Reaction Composition (in Each Incubation Well) Contains:
At an incubation temperature of 37° C., the reaction was started with addition of NADPH Regeneration System, at each time point, 25 uL of the reaction mixture was removed and added to a plate with 225 uL quenching solution (50% MeOH, 25% ACN, 25% H2O, and 200 nM labetalol as internal standard). After plates were vortexed, they were centrifuged for 30 minutes to remove proteins. About 100 μL supernatant was removed to a new plate and diluted with 150 μL water. About 20 μL of the mixture was injected into LC/MS/MS system to monitor the compound's response. In vitro measured t1/2 was used to calculate Clint values.

recombinant HIV protease = recombinant HIV protease (Human immunodeficiency virus type 1 group M subtype B (isolate HXB2) (HIV-1), UniProt P04585); experiment: biochemical; format: biochemical
Method: HIV Protease Enzyme Inhibition (PI) Activity
Inhibitor potency against HIV protease was measured using an enzymatic assay with a fluorogenic readout. To a reaction buffer containing 100 mM ammonium acetate at pH 5.3, 100 mM NaCl, 1 mM EDTA, 1 mM DTT, 0.25 mg/mL BSA and 1% DMSO were added 10 nM of recombinant HIV protease (concentration based on protein monomer) and test compound at one of various concentrations. […] The total volume of the assay solution was 100 μL. […] The slopes of the progress curves were the measure of reaction rates. Reaction rates were plotted as a function of inhibitor concentration, and the data were fit with a four-parameter logistic fit using Graphpad PRISM software to yield IC50 values.

[3] = system: single replication cycle recombinant virus containing the protease and reverse transcriptase coding regions of HIV-1 from a patient blood sample; format: cell-based
From the text: Resistance testing was done by Monogram Biosciences using their proprietary PhenoSense HIV assay.

[4] = Human immunodeficiency virus 1, IIIB, MT4, MT-4 cells, HIV-1, read-out: MT4 EC50
[5] = MT-4 cells, HIV-1, read-out: MT4 EC50
[6] = recombinant HIV protease, fluorogenic enzymatic assay, read-out: HIV PI IC50

Chain of recombinant human BACE-1 (P56817 46-501): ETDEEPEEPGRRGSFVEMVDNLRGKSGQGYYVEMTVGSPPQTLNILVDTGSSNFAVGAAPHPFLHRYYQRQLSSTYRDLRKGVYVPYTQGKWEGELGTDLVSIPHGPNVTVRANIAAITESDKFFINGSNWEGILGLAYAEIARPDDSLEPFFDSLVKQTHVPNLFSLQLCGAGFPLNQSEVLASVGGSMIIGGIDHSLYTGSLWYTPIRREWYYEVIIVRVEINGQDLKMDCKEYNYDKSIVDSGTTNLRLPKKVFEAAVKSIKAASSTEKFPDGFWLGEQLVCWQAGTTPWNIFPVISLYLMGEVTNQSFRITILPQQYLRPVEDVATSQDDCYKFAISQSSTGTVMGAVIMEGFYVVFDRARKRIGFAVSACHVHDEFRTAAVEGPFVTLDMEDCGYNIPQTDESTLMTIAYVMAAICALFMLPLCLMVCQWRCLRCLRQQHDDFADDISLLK

Row | Compound | IC50 (recombinant human BACE-1) | EC50 [1, 4] | half-life at 1 uM [2] | further results
1 | CC(C)(C[C@]1(c2ccc(-c3cnn(C4CC4)n3)cc2)NC(=N)N([C@H](COC(=O)NC2(C(F)(F)F)CC2)c2ccc(Cl)c(-n3ncnc3C(F)F)c2)C1=O)C(F)(F)F [Compound 270] | > 100 µM | 19.1 nM | ≥ 6.58 h | –
2 | CC(C)(C)C[C@]1(c2ccc(-c3cnn(C4CC4)c3)cc2)NC(=N)N([C@H](COC(=O)NC2(C(F)(F)F)CC2)c2ccc(Cl)c(-c3ncnn3C(F)F)c2)C1=O [Compound 164] | – | – | – | EC50 [1, 5]: 16.5 nM; IC50 (recombinant HIV protease; [6]): 0.0026 µM
3 | COC(=O)N[C@H](C(=O)N[C@@H](Cc1ccccc1)[C@@H](O)CN(Cc1ccc(-c2ccccn2)cc1)NC(=O)[C@@H](NC(=O)OC)C(C)(C)C)C(C)(C)C [atazanavir, methyl N-[(2S)-1-[2-[(2S,3S)-2-hydroxy-3-[[(2S)-2-(methoxycarbonylamino)-3,3-dimethylbutanoyl]amino]-4-phenylbutyl]-2-[(4-pyridin-2-ylphenyl)methyl]hydrazinyl]-3,3-dimethyl-1-oxobutan-2-yl]carbamate] | – | – | 0.433 to 1.78 h | Fold change in EC50 ([3]; Resistance mutations D30N L33F N88D L90M): 5.27; Fold change in EC50 ([3]; Resistance mutations L10F M46I I47V I50V I54V G73S I84V L90M): 30.0; Fold change in EC50 ([3]; Resistance mutations L10F M46L I54V V82A I84V): >101; Fold change in EC50 ([3]; Resistance mutations L10F V32I M46I I47V I50V I54L I84V): 5.67; Fold change in EC50 ([3]; Resistance mutations L10I L33F G48V I50L I54V/I V82A): 87.0; Fold change in EC50 ([3]; Resistance mutations L10I L33F/L G48V G73S V82A): >101; Fold change in EC50 ([3]; Resistance mutations L10I M46I I50V): 1.99; Fold change in EC50 ([3]; Resistance mutations L10I V32I L33F M46L I54L I84V L89V): 97.0; Fold change in EC50 ([3]; Resistance mutations L10I V32I M46I I47V G48V I54M V82T L90M): 11.0; Fold change in EC50 ([3]; Resistance mutations L10I V32I M46I I47V I50V I54L L90M): 36.0; Fold change in EC50 ([3]; Resistance mutations L10V/L M46I I50L V82A): >101; Fold change in EC50 ([3]; Resistance mutations L33F M46I I50V L76V): 1.91
4 | CC(C)(C)C[C@]1(c2ccc(-c3cnn(C(F)F)c3)cc2F)NC(=N)N([C@H](COC(=O)NC2(C(F)(F)F)CC2)c2ccc(Cl)c(-n3ncnc3C(F)F)c2)C1=O [Compound 195] | > 100 µM | 10.5 nM | ≥ 6.58 h | –
5 | CC(C)(C[C@]1(c2ccc(-c3cnn(C4CC4)n3)cc2)NC(=N)N([C@H](COC(=O)NC2(C(F)(F)F)CC2)c2ccc(Cl)c(-c3ncnn3C(F)F)c2)C1=O)C(F)(F)F [Compound 152] | > 100 µM | 13 nM | ≥ 6.58 h | –
6 | C[C@H](C(=O)NC[C@H](c1ccc(Cl)c(-n2ncnc2C(F)F)c1)N1C(=N)N[C@](CC(C)(C)C(F)(F)F)(c2ccc(-c3cnn(C4CC4)n3)cc2)C1=O)C(F)(F)F [Compound 389] | > 100 µM | 12.2 nM | ≥ 6.58 h | –
7 | CC(C)(C[C@]1(c2ccc(-c3cnn(C4CC4)n3)cc2)NC(=N)N([C@H](COC(=O)NC2(C(F)F)CC2)c2ccc(Cl)c(-c3ncnn3C(F)F)c2)C1=O)C(F)(F)F [Compound 155] | > 100 µM | 9.87 nM | ≥ 6.58 h | –
8 | CC(C)(F)C[C@]1(c2ccc(-c3cnn(C(F)F)c3)cc2)NC(=N)N([C@H](COC(=O)NC2(C(F)(F)F)CC2)c2ccc(Cl)c(-n3ncnc3C(F)F)c2)C1=O [Compound 194] | > 100 µM | 14.8 nM | ≥ 6.58 h | –
9 | CC(C)(C)C[C@]1(c2ccc(-c3cnn(C(F)F)c3)cc2)NC(=N)N([C@H](COC(=O)NC(C)(C)C(F)(F)F)c2ccc(Cl)c(-n3cncn3)c2)C1=O [Compound 242] | > 100 µM | 6.83 nM | ≥ 6.58 h | –
10 | CC(C)(C)C[C@]1(c2ccc(-c3cnn(C4CC4)n3)cc2)NC(=N)N([C@H](COC(=O)NC2(C(F)(F)F)CC2)c2ccc(Cl)c(-n3ncnc3C(F)F)c2)C1=O [Compound 223] | > 100 µM | 13.1 nM | ≥ 6.58 h | –
11 | CC(C)(C)C[C@]1(c2ccc(-c3cnn(C(F)F)c3)cc2)NC(=N)N([C@H](COC(=O)NC2(C(F)(F)F)CC2)c2ccc(Cl)c(-n3cncn3)c2)C1=O [Compound 236] | > 100 µM | 10.6 nM | ≥ 6.58 h | –
12 | CC(C)(C)C[C@]1(c2ccc(-c3ccn(C4CC4)n3)cc2)NC(=N)N([C@H](COC(=O)NC2(C(F)(F)F)CC2)c2ccc(Cl)c(-n3ncnc3C(F)F)c2)C1=O [Compound 214] | – | 11.5 nM | – | IC50 (recombinant HIV protease): 0.003 µM
13 | CC(C)(C)C[C@]1(c2ccc(-c3cnn(C(F)F)c3)cc2)NC(=N)N([C@H](COC(=O)NC2(C(F)(F)F)CC2)c2ccc(Cl)c(-c3ncnn3C(F)F)c2)C1=O [Compound 113] | > 100 µM | 7.75 nM | – | –
14 | Cn1c(=O)ccc2cc([C@@]3(CC(C)(C)C)NC(=N)N([C@H](COC(=O)NC4(C(F)(F)F)CC4)c4ccc(Cl)c(-n5ncnc5C(F)F)c4)C3=O)ccc21 [Compound 349] | > 100 µM | – | – | EC50 ([1]; Human immunodeficiency virus 1, IIIB, MT4, read-out: MT4 EC50 (nM)): 36 nM
15 | CC1(NC(=O)OC[C@H](c2ccc(Cl)c(-c3ncn[nH]3)c2)N2C(=N)N[C@](CC(C)(C)C(F)(F)F)(c3ccc(-c4cnn(C(F)F)c4)cc3)C2=O)CC1 [Compound 32] | > 100 µM | 69.2 nM | – | –
16 | CC(C)(F)C[C@]1(c2ccc(-c3cnn(C4CC4)c3)cc2)NC(=N)N([C@H](COC(=O)NC2(C(F)(F)F)CC2)c2ccc(Cl)c(-c3ncnn3C(F)F)c2)C1=O [Compound 131] | > 100 µM | 20.8 nM | ≥ 6.58 h | –
17 | CC(C)(C)C[C@]1(c2ccc(-c3cnn(C4CC4)n3)cc2)NC(=N)N([C@H](COC(=O)NC2(C(F)(F)F)CC2)c2ccc(Cl)c(-c3ncnn3C(F)F)c2)C1=O [Compound 146] | > 100 µM | 10.3 nM | ≥ 6.58 h | –
18 | C[C@H](NC(=O)OC[C@H](c1ccc(Cl)c(-n2ncnc2C(F)F)c1)N1C(=N)N[C@](CC(C)(C)C)(c2ccc(-c3cnn(C(F)F)c3)cc2)C1=O)C(F)(F)F [Compound 311] | > 100 µM | 7.01 nM | ≥ 6.58 h | –
19 | CC(C)(C)C[C@]1(c2ccc(-c3ccnn3C(F)F)cc2)NC(=N)N([C@H](COC(=O)NC2(C(F)(F)F)CC2)c2ccc(Cl)c(-n3ncnc3C(F)F)c2)C1=O [Compound 212] | – | – | – | IC50 (recombinant human BACE-1; 50 nM recombinant human BACE-1, pH 4.8, read-out: BACE IC50): > 100 µM; EC50 [1, 5]: 11.9 nM
20 | CC(C)(C)C[C@]1(c2ccc(-c3cnn(C(F)F)c3)cc2)NC(=N)N([C@H](COC(=O)NC2(C(F)(F)F)CC2)c2ccc(F)c(-n3ncnc3C(F)F)c2)C1=O [Compound 380] | – | – | – | EC50 [1, 5]: 29.2 nM; Half-life in human liver microsomes ([2]; human liver microsomes 0.5 mg/mL, 1 uM compound, NADPH-regenerating system, 37° C.): ≥ 6.58 h; IC50 (recombinant HIV protease; [6]): 0.0035 µM
21 | CC(C)(C)C[C@]1(c2ccc3c(C(F)F)nccc3c2)NC(=N)N([C@H](COC(=O)NC2(C(F)(F)F)CC2)c2ccc(Cl)c(-n3ncnc3C(F)F)c2)C1=O [Compound 348] | > 100 µM | 7.46 nM | – | –
22 | CN(C(=O)OC[C@H](c1ccc(Cl)c(-n2cncn2)c1)N1C(=N)N[C@](CC(C)(C)C)(c2ccc(-c3cnn(C4CC4)c3)cc2)C1=O)C1CC1 [Compound 244] | > 100 µM | 7.66 nM | – | –

Reference: patent publication US10774053B2, “HIV protease inhibitors” (Gilead Sciences, Inc., priority 2017, dated 2020)
